Measurements from ChEMBL document CHEMBL1201862, “PubChem BioAssay data set” (2004).
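Cultured in 96-well plates, cells were exposed to test compound for 48 hours across five concentrations. Abbreviation: GI50, concentration required for 50% inhibition of growth.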 Active and inactive are the calls of the source. Rule as the data show it: active = GI50 up to about 1.1 µM and inactive = higher.

What was measured:
Test in all cases: inhibition of tumour cell growth, NCI panel, 48 h
NCI-H460 = system: NCI-H460
NCI/ADR-RES = system: NCI/ADR-RES
NCI-H226 = system: NCI-H226
T47D = system: T47D
OVCAR-4 = system: OVCAR-4
IGROV-1 = system: IGROV-1
UACC-257 = system: UACC-257
HOP-62 = system: HOP-62
KM12 = system: KM12
CCRF-CEM = system: CCRF-CEM
RPMI-8226 = system: RPMI-8226
OVCAR-3 = system: OVCAR-3
Hs-578T = system: Hs-578T
TK-10 = system: TK-10
786-0 = system: 786-0
ACHN = system: ACHN
M14 = system: M14
UO-31 = system: UO-31
SN12C = system: SN12C
UACC-62 = system: UACC-62

| SMILES | GI50 (NCI-H460) | GI50 (NCI/ADR-RES) | GI50 (NCI-H226) | GI50 (T47D) | GI50 (OVCAR-4) | GI50 (IGROV-1) | GI50 (UACC-257) | GI50 (HOP-62) | GI50 (KM12) | GI50 (CCRF-CEM) | GI50 (RPMI-8226) | GI50 (OVCAR-3) | GI50 (Hs-578T) | GI50 (TK-10) | GI50 (786-0) | GI50 (ACHN) | GI50 (M14) | GI50 (UO-31) | GI50 (SN12C) | GI50 (UACC-62) |
| --- | --- | --- | --- | --- | --- | --- | --- | --- | --- | --- | --- | --- | --- | --- | --- | --- | --- | --- | --- | --- |
| COc1ccc(C(OC(C)=O)C2C(=C(C#N)C#N)c3ccccc3C2=C(C#N)C#N)cc1 (stereo not drawn) | 28.1 µM (inactive) | 50.1 µM (inactive) | 38.6 µM (inactive) | 70 µM (inactive) | 32.4 µM (inactive) | 65.6 µM (inactive) | > 100 µM (inactive) | 20.8 µM (inactive) | 43.7 µM (inactive) | 21.8 µM (inactive) | 25.5 µM (inactive) | 21.6 µM (inactive) | 35.6 µM (inactive) | 83.9 µM (inactive) | 60.4 µM (inactive) | 36.4 µM (inactive) | 40.7 µM (inactive) | 28 µM (inactive) | – | – |
| CC1=NN=C(N)N/C1=C\C(Sc1ccc(Cl)cc1)c1ccc([N+](=O)[O-])cc1 (stereo not drawn) | > 100 µM (inactive) | > 100 µM (inactive) | 20.8 µM (inactive) | > 100 µM (inactive) | > 100 µM (inactive) | 39.1 µM (inactive) | 91.4 µM (inactive) | > 100 µM (inactive) | 94 µM (inactive) | 27.5 µM (inactive) | 35.6 µM (inactive) | – | > 100 µM (inactive) | > 100 µM (inactive) | 38.1 µM (inactive) | 58.9 µM (inactive) | 62.1 µM (inactive) | 28.3 µM (inactive) | 81.1 µM (inactive) | 91.6 µM (inactive) |
| COC(=O)CNC(=O)CCC(C)[C@H]1CCC2C3C(C[C@H](OC(C)=O)[C@@]21C)[C@@]1(C)CCC2(C[C@H]1C[C@H]3OC(C)=O)OOC1(CC[C@]3(C)C4C[C@H](OC(C)=O)[C@@]5(C)C(CC[C@@H]5C(C)CCC(=O)NCC(=O)OC)C4[C@H](OC(C)=O)C[C@@H]3C1)OO2 (stereo partly drawn) | 2.07 µM (inactive) | 8.75 µM (inactive) | 1.12 µM (active) | 2.6 µM (inactive) | 4.9 µM (inactive) | 0.836 µM (active) | 1.14 µM (inactive) | 0.746 µM (active) | 3.98 µM (inactive) | 0.244 µM (active) | 0.309 µM (active) | 3.03 µM (inactive) | 0.938 µM (active) | 1.19 µM (inactive) | 0.76 µM (active) | 0.838 µM (active) | 1.37 µM (inactive) | 0.828 µM (active) | 0.802 µM (active) | – |
| Nc1nc2ccc(Sc3ccc4nc(N)[nH]c(=O)c4c3)cc2c(=O)[nH]1 | > 100 µM (inactive) | > 100 µM (inactive) | 14.1 µM (inactive) | > 100 µM (inactive) | > 100 µM (inactive) | 61.1 µM (inactive) | > 100 µM (inactive) | – | > 100 µM (inactive) | > 100 µM (inactive) | > 100 µM (inactive) | > 100 µM (inactive) | > 100 µM (inactive) | > 100 µM (inactive) | > 100 µM (inactive) | > 100 µM (inactive) | > 100 µM (inactive) | > 100 µM (inactive) | > 100 µM (inactive) | > 100 µM (inactive) |
| O=c1[nH]nc(-c2ccccc2)n1-c1ccncc1 | > 100 µM (inactive) | > 100 µM (inactive) | > 100 µM (inactive) | > 100 µM (inactive) | > 100 µM (inactive) | > 100 µM (inactive) | > 100 µM (inactive) | > 100 µM (inactive) | > 100 µM (inactive) | > 100 µM (inactive) | > 100 µM (inactive) | > 100 µM (inactive) | > 100 µM (inactive) | > 100 µM (inactive) | > 100 µM (inactive) | > 100 µM (inactive) | > 100 µM (inactive) | > 100 µM (inactive) | > 100 µM (inactive) | – |
| O=C1C(Br)=CC2(C=C1Br)CCNC1=C2C(=O)c2[nH]cnc2C1=O | 16.7 µM (inactive) | 21.1 µM (inactive) | 20.4 µM (inactive) | 15.6 µM (inactive) | 14.5 µM (inactive) | – | 14.6 µM (inactive) | 17.2 µM (inactive) | 16.9 µM (inactive) | 15 µM (inactive) | 14.5 µM (inactive) | 15.7 µM (inactive) | 26.3 µM (inactive) | 29.2 µM (inactive) | 16.4 µM (inactive) | 14.6 µM (inactive) | 16.9 µM (inactive) | 15.9 µM (inactive) | – | 11.9 µM (inactive) |
| Nc1nc(O)c2ncn(C3C=CC(CO)C3)c2n1 (stereo not drawn) | > 100 µM (inactive) | > 100 µM (inactive) | > 100 µM (inactive) | > 100 µM (inactive) | > 100 µM (inactive) | > 100 µM (inactive) | > 100 µM (inactive) | > 100 µM (inactive) | > 100 µM (inactive) | – | > 100 µM (inactive) | > 100 µM (inactive) | > 100 µM (inactive) | > 100 µM (inactive) | > 100 µM (inactive) | > 100 µM (inactive) | > 100 µM (inactive) | > 100 µM (inactive) | > 100 µM (inactive) | > 100 µM (inactive) |
| COc1ccc2oc(=N)c(C(=O)NCc3ccccc3)cc2c1 | 28.5 µM (inactive) | 14.9 µM (inactive) | 22.7 µM (inactive) | 15 µM (inactive) | 34.8 µM (inactive) | 19.9 µM (inactive) | 24.8 µM (inactive) | 21.2 µM (inactive) | 13.3 µM (inactive) | 62.1 µM (inactive) | 45 µM (inactive) | 18.8 µM (inactive) | 15.8 µM (inactive) | 22.6 µM (inactive) | 27.9 µM (inactive) | 13.3 µM (inactive) | 33.2 µM (inactive) | 46.6 µM (inactive) | 32.2 µM (inactive) | – |
| CC(=O)O[C@@H]1[C@H]2O[C@H]2[C@H]2O[C@@]2(COC(=O)c2ccccc2)[C@H]1OC(C)=O | 34.2 µM (inactive) | > 100 µM (inactive) | > 100 µM (inactive) | > 100 µM (inactive) | > 100 µM (inactive) | 35.8 µM (inactive) | > 100 µM (inactive) | – | > 100 µM (inactive) | > 100 µM (inactive) | > 100 µM (inactive) | > 100 µM (inactive) | > 100 µM (inactive) | > 100 µM (inactive) | > 100 µM (inactive) | 16.9 µM (inactive) | > 100 µM (inactive) | > 100 µM (inactive) | > 100 µM (inactive) | > 100 µM (inactive) |
| CC(NC(=O)C(Cc1ccc(OC(=O)c2ccccc2)cc1)NC(=O)OC(C)(C)C)C(=O)NCC(=O)NC(Cc1ccccc1)NC(=O)OCc1ccccc1 (stereo not drawn) | > 100 µM (inactive) | > 10 µM (inactive) | > 100 µM (inactive) | > 100 µM (inactive) | 15.8 µM (inactive) | > 100 µM (inactive) | – | > 100 µM (inactive) | > 100 µM (inactive) | – | 50.6 µM (inactive) | > 100 µM (inactive) | 59.8 µM (inactive) | > 100 µM (inactive) | > 100 µM (inactive) | > 100 µM (inactive) | > 100 µM (inactive) | > 100 µM (inactive) | > 100 µM (inactive) | > 100 µM (inactive) |
| C=C(C)[C@@H]1CCC2=C[C@H](C/C(C)=C\C3=CC(C)=C(O3)[C@H]1O)OC2=O | > 100 µM (inactive) | > 100 µM (inactive) | 36.1 µM (inactive) | 41.9 µM (inactive) | 60 µM (inactive) | 93.1 µM (inactive) | > 100 µM (inactive) | – | > 100 µM (inactive) | > 100 µM (inactive) | > 100 µM (inactive) | > 100 µM (inactive) | 65.5 µM (inactive) | 71 µM (inactive) | 35.2 µM (inactive) | 57.5 µM (inactive) | > 100 µM (inactive) | > 100 µM (inactive) | 71.8 µM (inactive) | 93.5 µM (inactive) |
| CCC(c1ccc(OC)cc1)C1NC(=S)NC1=O (stereo not drawn) | > 50 µM (inactive) | > 50 µM (inactive) | > 50 µM (inactive) | > 50 µM (inactive) | > 50 µM (inactive) | > 50 µM (inactive) | > 50 µM (inactive) | > 50 µM (inactive) | > 50 µM (inactive) | > 50 µM (inactive) | > 50 µM (inactive) | > 50 µM (inactive) | > 50 µM (inactive) | > 50 µM (inactive) | > 50 µM (inactive) | > 50 µM (inactive) | > 50 µM (inactive) | > 50 µM (inactive) | > 50 µM (inactive) | – |
| Fc1cc(-c2cc(-c3ccccc3)n[nH]2)c(Cl)cc1Cl | > 100 µM (inactive) | > 100 µM (inactive) | 50.7 µM (inactive) | > 100 µM (inactive) | > 100 µM (inactive) | 1.77 µM (inactive) | > 100 µM (inactive) | 64.4 µM (inactive) | > 100 µM (inactive) | 82.2 µM (inactive) | 30.9 µM (inactive) | > 100 µM (inactive) | > 100 µM (inactive) | > 100 µM (inactive) | > 100 µM (inactive) | 6.35 µM (inactive) | > 100 µM (inactive) | > 100 µM (inactive) | > 100 µM (inactive) | – |
| Cc1oc2c(c1C)S(=O)(=O)C(C#N)=C(N(C)C)N2 | > 100 µM (inactive) | > 100 µM (inactive) | > 100 µM (inactive) | > 100 µM (inactive) | > 100 µM (inactive) | > 100 µM (inactive) | > 100 µM (inactive) | > 100 µM (inactive) | > 100 µM (inactive) | – | > 100 µM (inactive) | > 100 µM (inactive) | > 100 µM (inactive) | > 100 µM (inactive) | > 100 µM (inactive) | > 100 µM (inactive) | > 100 µM (inactive) | > 100 µM (inactive) | > 100 µM (inactive) | > 100 µM (inactive) |
